Test results from EP1792623B1, “Use of extracts and constituents of leontopodium as enhancers of cholinergic function” (Leopold-Franzens-Universität Innsbruck, priority 2005, dated 2007).

How the values were obtained:
acetylcholinesterase = format: biochemical; conditions: c = 100 mM, after 60 min, in comparison to medium control
Protocol: Experiments are carried out applying Ellman's method in a 96-well microplate assay described by Ingkaninan et al, Journal of Chromatography A 827 (2000) p. 6173 and Rhee et al, Journal of Chromatography A 915 (2001) p. 217-223. In addition to buffer A described above, a buffer containing 0.1 M NaCl and 0.02 M MgClx2.6 H2O in buffer A is used for preparing a 3 mM solution of DTNB. For the microplate assay the substrate ATCI is dissolved 15 mM in water (HPLC grade). The enzyme stock solution is diluted with buffer A to get 0.22 U/ml. In the 96-well plates, 25 µl of 15 mM ATCl, 125 µl of 3 mM DTNB, 50 µl of buffer A, and 25 µl of sample (10 mM in MeOH, respectively DMSO (dimethylsulfoxide), diluted ten times with buffer A) are added. […] […] The absorbance of the product (2-nitrobenzoate-5-mercapto thioline) is measured at 405 nm with a Chameleon 5025 (Hidex, Finland) microplate reader 0, 15, 30, 45 and 60 minutes after adding 25 µl of 0.22 U/ml acetylcholinesterase-solution to the reaction mixture. All experiments are performed 4 times (n=4) and the data are statistically processed using the SPSS 11.5 program package. Percentage of inhibition is calculated by comparing the rates for the sample to the blank (10% MeOH, resp. DMSO, in buffer).

[1] = test system: release of ACh in rat brain; assay: ACh release in nucleus accumbens, push-pull technique, after i.c.v. application; format: in vivo, Sprague-Dawley rats; conditions: 2 µmol i.c.v.
Source text: Surgery and push-pull technique: Protocols of experiments were approved by the Bundesministerium für Wissenschaft, Forschung and Kunst, Austria, Kommission für Tierversuchsangelegenheitem. Sprague-Dawley rats (250-280 g) were anaesthetized with urethane 1.2 g/kg. i.p. The head was fixed in a stereotaxic frame and a push-pull cannula (outer tubing: o.d. 0.75 mm, i.d. 0.41 mm; inner tubing: o.d. 0.26 mm, i.d. 0.13 mm) was mounted on a microdrive. This was stereotaxically inserted through a hole in the skull into the nucleus accumbens (coordinates, mm from bregma: AP, +1.2, L, +2.5; V, -7.8) (Paxinos G. Watson H. (1998) The rat brain in stereotaxic coordinates, 4th edn. Academic Press, Sidney.). […] After 1 h of the cannula insertion the samples were collected into tubes kept at -20° C in time periods of 10 min and then stored at -80°C until acetylcholine (ACh) was determined. […]
Determination of acetylcholine (ACh): ACh content in the samples was determined by HPLC with a cation-exchanging analytical column and a post-column reactor followed by electrochemical detection (Damsma et al, 1997; Prast et al; 1998). […] The peroxide was electrochemically detected by a UniJet platin electrode (3mm) at +500 mV with an amperometric detector (BAS LC-4, Bioanalytical Systems, West Lafayette, IN, USA). […] ACh was quantified with external standards that were injected at the beginning and the end of the analysis. […]

## 14-acetoxy-isocomene
acetylcholinesterase
  inhibition (%): 1.4 ± 8.1%
[1]
  release of ACh in rat brain: significantly enhance the concentration of neurotransmitters in the CNS
